According to ChEMBL document CHEMBL5321275, “Discovery, Optimization, and Evaluation of Novel N-(Benzimidazol-5-yl)-1,3,4-thiadiazol-2-amine Analogues as Potent STAT3 Inhibitors for Cancer Treatment” (J Med Chem, 2023):
Values after ≈ are worked out from the molar mass of the structure shown.

Tests used:
[1] = Metabolic stability in mouse liver microsomes assessed as half life in presence of NADPH/UDPGA; type: ADME, Microsome
[2] = Metabolic stability in mouse liver microsomes assessed as intrinsic clearance in presence of NADPH/UDPGA; type: ADME, Microsome; conditions: read-out: CLH
MDA-MB-231 [3] = test: Antiproliferative activity against human MDA-MB-231 cells assessed as inhibition of cell growth at 10 uM measured after 96 hrs by MTT assay relative to control; type: functional
DU-145 [4] = test: Antiproliferative activity against human DU-145 cells assessed as inhibition of cell growth measured after 96 hrs by MTT assay; type: functional, cell-based; conditions: DU-145, 96 h
DU-145 [5] = test: Antiproliferative activity against human DU-145 cells assessed as inhibition of cell growth at 10 uM measured after 96 hrs by MTT assay relative to control; type: functional
MDA-MB-231 [6] = test: Antiproliferative activity against human MDA-MB-231 cells assessed as inhibition of cell growth measured after 96 hrs by MTT assay; type: functional, cell-based; conditions: MDA-MB-231, 96 h
HEK-Blue IL-6 = test: Inhibition of IL-6/JAK/STAT3 signalling pathway in HEK-Blue IL-6 cells at 10 uM incubated for 16 hrs by QUANTI-blue assay relative to control; type: cell-based; conditions: Homo sapiens
[7] = Metabolic stability in human liver microsomes at 10 uM measured after 120 mins in presence of NADPH-GS by HPLC-MS/MS analysis; type: ADME, Microsome; conditions: read-out: Stability
[8] = Inhibition of IL-6/JAK/STAT3 signalling pathway in HEK-Blue IL-6 cells incubated for 16 hrs by QUANTI-blue assay; type: cell-based; conditions: Homo sapiens, HEK-Blue IL-6, 16 h
[9] = Solubility of compound in water incubated for 10 mins; type: physicochemical

Compound	half-life [1]	microsomal CLint [2]	inhibition at 10 µM (MDA-MB-231 [3])	IC50 (DU-145 [4])	inhibition at 10 µM (DU-145 [5])	IC50 (MDA-MB-231 [6])	inhibition (HEK-Blue IL-6)	remaining at 2 h, 10 µM [7]	IC50 [8]	solubility at 10 min [9]
O=c1ccc2ccc(O)cc2o1 [UMBELLIFERONE]	1.54 min	902 µL/min/mg								
CCCn1c(-c2ccc(F)cc2)nc2cc(Nc3nnc(-c4cc(OC)c(OC)c(OC)c4)s3)c(N3CCN(C)CC3)cc21			94.5%	4.42 µM	80.7%	0.8 µM	108%	25%	2.38 µM	
CN1CCN(c2cc3c(cc2Nc2nnc(-c4cccc(F)c4)s2)nc(-c2ccc(F)cc2)n3C2CC2)CC1			91.9%	9.37 µM	56.4%	6.47 µM	82.1%		3.52 µM	
COc1cc(-c2nnc(Nc3cc4nc(-c5ccc(F)cc5)n(C5CC5)c4cc3F)s2)cc(OC)c1OC			-11.5%	> 10 µM	-10.3%	> 10 µM	83.5%		1.09 µM	
COc1cc(-c2nnc(Nc3cc4nc(-c5ccc(F)cc5)n(C5CC5)c4cc3N3CCN(C)CC3)s2)cc(OC)c1OC			92.5%	1.05 µM	87.3%	0.82 µM	95.7%	32.5%	4.51 µM	5.95 µg/mL (≈ 9.66 µM)
Fc1ccc(-c2nc3cc(Nc4nnc(-c5cccc(Cl)c5)s4)c(F)cc3n2C2CC2)cc1			-2.05%	> 10 µM	-7.76%	> 10 µM	67.8%		3.37 µM	
CN1CCN(c2cc3c(cc2Nc2nnc(-c4ccccc4)s2)nc(-c2ccccc2)n3C2CC2)CC1			83.3%	9.17 µM	47%	5.92 µM	78.1%		1.99 µM	
O=[N+]([O-])c1ccc2c(c1)S(=O)(=O)C=C2			92.2%	1.84 µM	79.6%	1.66 µM	107%		2.21 µM	
Fc1cccc(-c2nc3cc(Nc4nnc(-c5cccc(C(F)(F)F)c5)s4)c(F)cc3n2C2CC2)c1			5.54%	> 10 µM	-7.06%	> 10 µM	90%		0.41 µM	
CN1CCN(c2cc3c(cc2Nc2nnc(-c4cccc(C#N)c4)s2)nc(-c2ccc(F)cc2)n3C2CC2)CC1			92.7%	2.17 µM	85.9%	0.96 µM	83.7%		4.01 µM	
CCCCCn1c(-c2ccc(F)cc2)nc2cc(Nc3nnc(-c4ccccc4)s3)c(N3CCN(C)CC3)cc21			-7.99%	> 10 µM	-8.3%	> 80 µM	83.2%		3.96 µM	
CCCn1c(-c2ccc(F)cc2)nc2cc(Nc3nnc(-c4cccc(F)c4)s3)c(N3CCN(C)CC3)cc21			94.7%	4.34 µM	78.9%	3.33 µM	85.3%		1.96 µM	
CC(C)Cn1c(-c2ccc(F)cc2)nc2cc(Nc3nnc(-c4ccccc4)s3)c(N3CCN(C)CC3)cc21			62.2%	> 10 µM	26.7%	8.55 µM	77.4%		3.92 µM	
